In publication PMC6979384, “Characterization of the plant homeodomain (PHD) reader family for their histone tail interactions” (Epigenetics & Chromatin, 2020):

Key:
Assay in all cases: Histone peptide microarray
Format in all cases: binding, human
ING1 = conditions: ING1, GST-tagged; arrays performed twice, n of 4
Source text: (§1) To more comprehensively define the histone interactions of the 31 PHD readers identified from the domain microarray analyses, we probed each on an alternate microarray platform containing a library of 293 synthetic histone peptides with single or combinatorial PTMs (Additional file 2: Figure S4 and Additional file 3: Table S2).
(§2) The 31 GST-tagged PHD readers identified in the PHD finger domain array were expressed and purified as previously. Histone peptide arrays and peptide pulldown assays were conducted as recently described (specifically, the optimized protocol from Petell et al. for the former).
(§3) Supplementary file 13072_2020_328_MOESM3_ESM.xlsx: Additional file 3: Table S2. […] Excel Tab Peptide List is a compiled list of the entire 293 histone peptide library with amino acid sequence ranges. […] Each number corresponds to the peptide number designated in Peptide List. Excel Tab Average Signals is a compiled set of binding data: chromatin reader at 0.5 μM vs. entire 293 peptide library. Data is presented as the average and standard deviation of 4 replicates. The average signals are colored to indicate signal intensity with green being strong and white being weak/low. […] Key: red= stronger relative binding; blue = weaker relative binding. Excel Tab Array info summary is a table summarizing the domains, sequence coverage, array signal range, and noise for each of the GST-tagged readers assayed on the peptide microarrays.

PHF13 = conditions: PHF13, GST-tagged; arrays performed twice, n of 4
Source text: as §1, §2, §3

MORC3 (CW) = conditions: MORC3 (CW), GST-tagged; arrays performed twice, n of 4
Source text: as §1, §2, §3

PHRF1 (RP) = conditions: PHRF1 (RP), GST-tagged; arrays performed twice, n of 4
Source text: as §1, §2, §3

AIRE (PP) = conditions: AIRE (PP), GST-tagged; arrays performed twice, n of 4
Source text: as §1, §2, §3

KDM5B (3) = conditions: KDM5B (3), GST-tagged; arrays performed twice, n of 4
Source text: as §1, §2, §3

MLL5 = conditions: MLL5, GST-tagged; arrays performed twice, n of 4
Source text: as §1, §2, §3

PHF21A = conditions: PHF21A, GST-tagged; arrays performed twice, n of 4
Source text: as §1, §2, §3

PHF2 = conditions: PHF2, GST-tagged; arrays performed twice, n of 4
Source text: as §1, §2, §3

KDM4C (TTP) = conditions: KDM4C (TTP), GST-tagged; arrays performed twice, n of 4
Source text: as §1, §2, §3

RAG2 = conditions: RAG2, GST-tagged; arrays performed twice, n of 4
Source text: as §1, §2, §3

ING4 = conditions: ING4, GST-tagged; arrays performed twice, n of 4
Source text: as §1, §2, §3

ING5 = conditions: ING5, GST-tagged; arrays performed twice, n of 4
Source text: as §1, §2, §3

KDM5A (3) = conditions: KDM5A (3), GST-tagged; arrays performed twice, n of 4
Source text: as §1, §2, §3

TRIM66 (PB) = conditions: TRIM66 (PB), GST-tagged; arrays performed twice, n of 4
Source text: as §1, §2, §3

BAZ2B = conditions: BAZ2B, GST-tagged; arrays performed twice, n of 4
Source text: as §1, §2, §3

ING3 = conditions: ING3, GST-tagged; arrays performed twice, n of 4
Source text: as §1, §2, §3

DPF2 (PPC2W2) = conditions: DPF2 (PPC2W2), GST-tagged; arrays performed twice, n of 4
Source text: as §1, §2, §3

DIDO1 = conditions: DIDO1, GST-tagged; arrays performed twice, n of 4
Source text: as §1, §2, §3

BPTF (PB) = conditions: BPTF (PB), GST-tagged; arrays performed twice, n of 4
Source text: as §1, §2, §3

TAF3 = conditions: TAF3, GST-tagged; arrays performed twice, n of 4
Source text: as §1, §2, §3

PHF8 = conditions: PHF8, GST-tagged; arrays performed twice, n of 4
Source text: as §1, §2, §3

KDM7A = conditions: KDM7A, GST-tagged; arrays performed twice, n of 4
Source text: as §1, §2, §3

CHD5 (PPCC) = conditions: CHD5 (PPCC), GST-tagged; arrays performed twice, n of 4
Source text: as §1, §2, §3

PHF23 = conditions: PHF23, GST-tagged; arrays performed twice, n of 4
Source text: as §1, §2, §3

KDM5A (1) = conditions: KDM5A (1), GST-tagged; arrays performed twice, n of 4
Source text: as §1, §2, §3

SP140L = conditions: SP140L, GST-tagged; arrays performed twice, n of 4
Source text: as §1, §2, §3

CHD5 (PCC) = conditions: CHD5 (PCC), GST-tagged; arrays performed twice, n of 4
Source text: as §1, §2, §3

CHD4 (PPCC) = conditions: CHD4 (PPCC), GST-tagged; arrays performed twice, n of 4
Source text: as §1, §2, §3

ING2 = conditions: ING2, GST-tagged; arrays performed twice, n of 4
Source text: as §1, §2, §3

Substance: H4K5ac + K16ac: H4 1-23
- Array Heatmap value (peptide array binding signal) (ING1): 0.5084
- Array Heatmap value (peptide array binding signal) (PHF13): 0.5774
- Array Heatmap value (peptide array binding signal) (MORC3 (CW)): 0.3384
- Array Heatmap value (peptide array binding signal) (PHRF1 (RP)): 0.4298
- Array Heatmap value (peptide array binding signal) (AIRE (PP)): 0.4583
- Array Heatmap value (peptide array binding signal) (KDM5B (3)): 0.4611
- Array Heatmap value (peptide array binding signal) (MLL5): 0.5139
- Array Heatmap value (peptide array binding signal) (PHF21A): 0.4348
- Array Heatmap value (peptide array binding signal) (PHF2): 0.425
- Array Heatmap value (peptide array binding signal) (KDM4C (TTP)): 0.5082
- Array Heatmap value (peptide array binding signal) (RAG2): 0.2387
- Array Heatmap value (peptide array binding signal) (ING4): 0.4436
- Array Heatmap value (peptide array binding signal) (ING5): 0.3563
- Array Heatmap value (peptide array binding signal) (KDM5A (3)): 0.4193
- Array Heatmap value (peptide array binding signal) (TRIM66 (PB)): 0.5396
- Array Heatmap value (peptide array binding signal) (BAZ2B): 0.4504
- Array Heatmap value (peptide array binding signal) (ING3): 0.4411
- Array Heatmap value (peptide array binding signal) (DPF2 (PPC2W2)): 0.6547
- Array Heatmap value (peptide array binding signal) (DIDO1): 0.6124
- Array Heatmap value (peptide array binding signal) (BPTF (PB)): 0.3372
- Array Heatmap value (peptide array binding signal) (TAF3): 0.2655
- Array Heatmap value (peptide array binding signal) (PHF8): 0.3305
- Array Heatmap value (peptide array binding signal) (KDM7A): 0.3523
- Array Heatmap value (peptide array binding signal) (CHD5 (PPCC)): 0.5427
- Array Heatmap value (peptide array binding signal) (PHF23): 0.509
- Array Heatmap value (peptide array binding signal) (KDM5A (1)): 0.4676
- Array Heatmap value (peptide array binding signal) (SP140L): 0.3592
- Array Heatmap value (peptide array binding signal) (CHD5 (PCC)): 0.7385
- Array Heatmap value (peptide array binding signal) (CHD4 (PPCC)): 0.5383
- Array Heatmap value (peptide array binding signal) (ING2): 0.5823

Substance: H4K5me1 + K8ac + K12me1: H4 1-23
- Array Heatmap value (peptide array binding signal) (ING1): 0.5678
- Array Heatmap value (peptide array binding signal) (PHF13): 0.6435
- Array Heatmap value (peptide array binding signal) (MORC3 (CW)): 0.3838
- Array Heatmap value (peptide array binding signal) (PHRF1 (RP)): 0.4574
- Array Heatmap value (peptide array binding signal) (AIRE (PP)): 0.4591
- Array Heatmap value (peptide array binding signal) (KDM5B (3)): 0.5017
- Array Heatmap value (peptide array binding signal) (MLL5): 0.5981
- Array Heatmap value (peptide array binding signal) (PHF21A): 0.4816
- Array Heatmap value (peptide array binding signal) (PHF2): 0.5535
- Array Heatmap value (peptide array binding signal) (KDM4C (TTP)): 0.4942
- Array Heatmap value (peptide array binding signal) (RAG2): 0.2728
- Array Heatmap value (peptide array binding signal) (ING4): 0.4694
- Array Heatmap value (peptide array binding signal) (ING5): 0.3748
- Array Heatmap value (peptide array binding signal) (KDM5A (3)): 0.4387
- Array Heatmap value (peptide array binding signal) (TRIM66 (PB)): 0.6387
- Array Heatmap value (peptide array binding signal) (BAZ2B): 0.4974
- Array Heatmap value (peptide array binding signal) (ING3): 0.4924
- Array Heatmap value (peptide array binding signal) (DPF2 (PPC2W2)): 0.687
- Array Heatmap value (peptide array binding signal) (DIDO1): 0.8611
- Array Heatmap value (peptide array binding signal) (BPTF (PB)): 0.368
- Array Heatmap value (peptide array binding signal) (TAF3): 0.2843
- Array Heatmap value (peptide array binding signal) (PHF8): 0.3528
- Array Heatmap value (peptide array binding signal) (KDM7A): 0.3765
- Array Heatmap value (peptide array binding signal) (CHD5 (PPCC)): 0.5643
- Array Heatmap value (peptide array binding signal) (PHF23): 0.5681
- Array Heatmap value (peptide array binding signal) (KDM5A (1)): 0.4746
- Array Heatmap value (peptide array binding signal) (SP140L): 0.3553
- Array Heatmap value (peptide array binding signal) (CHD5 (PCC)): 0.7798
- Array Heatmap value (peptide array binding signal) (CHD4 (PPCC)): 0.6142
- Array Heatmap value (peptide array binding signal) (ING2): 0.626

Substance: H4K5me1 + K8me1 + K12me1: H4 1-23
- Array Heatmap value (peptide array binding signal) (ING1): 0.5585
- Array Heatmap value (peptide array binding signal) (PHF13): 0.6372
- Array Heatmap value (peptide array binding signal) (MORC3 (CW)): 0.3716
- Array Heatmap value (peptide array binding signal) (PHRF1 (RP)): 0.5051
- Array Heatmap value (peptide array binding signal) (AIRE (PP)): 0.4682
- Array Heatmap value (peptide array binding signal) (KDM5B (3)): 0.4984
- Array Heatmap value (peptide array binding signal) (MLL5): 0.5583
- Array Heatmap value (peptide array binding signal) (PHF21A): 0.4789
- Array Heatmap value (peptide array binding signal) (PHF2): 0.5422
- Array Heatmap value (peptide array binding signal) (KDM4C (TTP)): 0.4976
- Array Heatmap value (peptide array binding signal) (RAG2): 0.2518
- Array Heatmap value (peptide array binding signal) (ING4): 0.4603
- Array Heatmap value (peptide array binding signal) (ING5): 0.3655
- Array Heatmap value (peptide array binding signal) (KDM5A (3)): 0.4441
- Array Heatmap value (peptide array binding signal) (TRIM66 (PB)): 0.6442
- Array Heatmap value (peptide array binding signal) (BAZ2B): 0.4829
- Array Heatmap value (peptide array binding signal) (ING3): 0.4977
- Array Heatmap value (peptide array binding signal) (DPF2 (PPC2W2)): 0.7329
- Array Heatmap value (peptide array binding signal) (DIDO1): 0.7167
- Array Heatmap value (peptide array binding signal) (BPTF (PB)): 0.3553
- Array Heatmap value (peptide array binding signal) (TAF3): 0.2856
- Array Heatmap value (peptide array binding signal) (PHF8): 0.35
- Array Heatmap value (peptide array binding signal) (KDM7A): 0.3674
- Array Heatmap value (peptide array binding signal) (CHD5 (PPCC)): 0.5726
- Array Heatmap value (peptide array binding signal) (PHF23): 0.5446
- Array Heatmap value (peptide array binding signal) (KDM5A (1)): 0.4935
- Array Heatmap value (peptide array binding signal) (SP140L): 0.3587
- Array Heatmap value (peptide array binding signal) (CHD5 (PCC)): 0.851
- Array Heatmap value (peptide array binding signal) (CHD4 (PPCC)): 0.619
- Array Heatmap value (peptide array binding signal) (ING2): 0.6061
